From patent US20230293526A1, “METHOD FOR TREATING CANCER WITH A REVERSE TRANSCRIPTASE INHIBITOR” (PrimeFour Therapeutics, Inc., priority 2020, published 2023)

Assays:
cancer cell lines = assay: Cancer cell proliferation activity of representative nucleosides, CellTiterGlo 72 h (Example 7, Tables 8 and 9); type: cell-based
Procedure, shortened: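 Percent viability was set against 0.1% DMSO (100%) and 10 μM staurosporine (0%), with signal from CellTiterGlo luminescence. Dose-response treatment began one day after seeding and lasted 72 h at 37° C under 5% or 10% CO2, with 0.1% final DMSO.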

human LINE-1 = assay: Human LINE-1 (L1) retrotransposition dual-luciferase reporter assay in HeLa cells; type: cell-based; settings: Homo sapiens, HeLa, 72 h, read-out: Human LINE-1 IC50 (Human L1 activity inhibition)
Experimental: Representative compounds were tested for inhibition of retrotransposition activity of human LINE-1 (L1) retrotransposition reporter assay in HeLa cells according to the following procedure.
Human Cervical Adenocarcinoma Cells (HeLa) were cultured in Dulbecco's Modified Eagle's Medium (DMEM) containing 4500 mg/L glucose, L-glutamine, sodium pyruvate and sodium bicarbonate, supplemented with 10% of heat inactivated fetal bovine serum (FBS). Cells were grown at 37° C. in an atmosphere of 5% CO2. The dual luciferase-encoding plasmid pYX017 was provided by Prof Wenfeng An (Xie, et al., 2011, Nucleic Acids Res).
The reporter assay was performed in 96-well white, optical bottom plates (Thermo Fisher, 165306). 24 hours prior to transfection, HeLa cells were seeded in a density of 2,500 cells per well, in 50 μL of DMEM, 10% FBS media volume. Cells were incubated at 37° C. in an atmosphere of 5% CO2. Seeding was optimized to achieve approximately 30% cell confluency on the day of transfection. A transfection mix was prepared by combining transfection reagent FuGENE® HD (Promega, E2311) and plasmid DNA (100 ng per well) in a 3:1 ratio, in OpiMEM media (Thermo Fisher, 31985062). Next, 5 μL of the transfection mix was combined with 20 μL of DMEM, 10% FBS media, and 25 μL of this mix was added into each well of an assay plate. In each assay plate one column remained untransfected to serve as a blank luminescence signal.
Serial dilution of test compounds was performed in DMSO and transferred to medium. Next, 25 μL of media-diluted compounds series were transferred to an assay plate containing cells and transfection media. The final concentration of DMSO in treated wells was 0.2%. Serial dilutions of compounds were added to an assay plate immediately after transfection. Compounds were tested in triplicates. The assay plate was then incubated with transfection reagent and compounds at 37° C. in an atmosphere of 5% CO2 for 72 hours.
Luciferase reporter activity was quantified with the Dual-Luciferase® Reporter Assay System (Promega) following the manufacturer's manual, with a passive lysis buffer volume increased to 30 μL and lysis incubation time increased to 20 min at room temperature with gentle shaking, to ensure complete cell lysis. Luminescence was measured using a SpectraMax i3×Multi-Mode Microplate Reader, with integration times of 100 ms and 10 ms applied to measure FLuc and RLuc signals, respectively. Relative LNE-1 activity was calculated as Firefly signal/Renilla signal*10,000. In order to determine IC50 values for each compound, dose response data were fit to a logistic using non-linear regression.

Measured: IC50

Nc1nc(=O)n([C@@H]2C=C[C@H](CO)O2)cc1F [Elvucitabine, reference compound]
18.5 µM: cancer cell lines; Homo sapiens, U-87 MG, 72 h, U87MG, 72 h (Table 9)
4.2 µM: cancer cell lines; Homo sapiens, SU-DHL-6, 72 h, SU-DHL-6, 72 h (Table 9)
4.93 µM: cancer cell lines; Homo sapiens, MINO, 72 h, 72 h (Table 9)
6.99 µM: cancer cell lines; Homo sapiens, SK-N-SH, 72 h, SKNSH, 72 h (Table 9)
1.41 µM: cancer cell lines; Homo sapiens, DU-145, 72 h, DU145, 72 h (Table 9)
5.38 µM: cancer cell lines; Homo sapiens, MDA-MB-231, 72 h, MDAMB231, 72 h (Table 9)
> 50 µM: cancer cell lines; 72 h, 5637, 72 h (Table 9) | cancer cell lines; 72 h, CLS439, 72 h (Table 9) | cancer cell lines; 72 h, HS729, 72 h (Table 9) | cancer cell lines; 72 h, J82, 72 h (Table 9) | cancer cell lines; 72 h, JAR, 72 h (Table 9) | cancer cell lines; 72 h, MT3, 72 h (Table 9) | cancer cell lines; 72 h, PC3, 72 h (Table 9) | cancer cell lines; 72 h, RD, 72 h (Table 9) | cancer cell lines; 72 h, T24, 72 h (Table 9) | cancer cell lines; Homo sapiens, 22Rv1, 72 h, 22RV1, 72 h (Table 9) | cancer cell lines; Homo sapiens, 786-0, 72 h, 786O, 72 h (Table 9) | cancer cell lines; Homo sapiens, A549, 72 h, A549, 72 h (Table 9) | cancer cell lines; Homo sapiens, A673, 72 h, A673, 72 h (Table 9) | cancer cell lines; Homo sapiens, A2780, 72 h, A2780, 72 h (Table 9) | cancer cell lines; Homo sapiens, A-375, 72 h, A375, 72 h (Table 9) | cancer cell lines; Homo sapiens, BT-20, 72 h, BT20, 72 h (Table 9) | cancer cell lines; Homo sapiens, BXPC-3, 72 h, BXPC3, 72 h (Table 9) | cancer cell lines; Homo sapiens, C-33-A, 72 h, C33A, 72 h (Table 9) | cancer cell lines; Homo sapiens, COLO 205, 72 h, COLO205, 72 h (Table 9) | cancer cell lines; Homo sapiens, COLO-678, 72 h, COLO678, 72 h (Table 9) | cancer cell lines; Homo sapiens, Ca-Ski, 72 h, CASKI, 72 h (Table 9) | cancer cell lines; Homo sapiens, Caco-2, 72 h, CACO2, 72 h (Table 9) | cancer cell lines; Homo sapiens, Calu-6, 72 h, CALU6, 72 h (Table 9) | cancer cell lines; Homo sapiens, DLD-1, 72 h, DLD1, 72 h (Table 9) | cancer cell lines; Homo sapiens, EFO-21, 72 h, EFO21, 72 h (Table 9) | cancer cell lines; Homo sapiens, EJ-28, 72 h, EJ28, 72 h (Table 9) | cancer cell lines; Homo sapiens, HCT-15, 72 h, HCT15, 72 h (Table 9) | cancer cell lines; Homo sapiens, HCT-116, 72 h, HCT116, 72 h (Table 9) | cancer cell lines; Homo sapiens, HEK293, 72 h, HEK293, 72 h (Table 9) | cancer cell lines; Homo sapiens, HT-29, 72 h, HT29, 72 h (Table 9) | cancer cell lines; Homo sapiens, HT-1080, 72 h, HT1080, 72 h (Table 9) | cancer cell lines; Homo sapiens, HeLa, 72 h, 72 h (Table 9) | cancer cell lines; Homo sapiens, Hs-578T, 72 h, HS578T, 72 h (Table 9) | cancer cell lines; Homo sapiens, IGROV-1, 72 h, IGROV1, 72 h (Table 9) | cancer cell lines; Homo sapiens, IMR-90, 72 h, IMR90, 72 h (Table 9) | cancer cell lines; Homo sapiens, JEG-3, 72 h, JEG3, 72 h (Table 9) | cancer cell lines; Homo sapiens, K562, 72 h, K-562, 72 h (Table 9) | cancer cell lines; Homo sapiens, L-363, 72 h, L-363, 72 h (Table 9) | cancer cell lines; Homo sapiens, LoVo, 72 h, 72 h (Table 9) | cancer cell lines; Homo sapiens, MCF7, 72 h, MCF7, 72 h (Table 9) | cancer cell lines; Homo sapiens, MDA-MB-435, 72 h, MDAMB435, 72 h (Table 9) | cancer cell lines; Homo sapiens, MDA-MB-436, 72 h, MDAMB436, 72 h (Table 9) | cancer cell lines; Homo sapiens, MDA-MB-468, 72 h, MDAMB468, 72 h (Table 9) | cancer cell lines; Homo sapiens, MG-63, 72 h, MG63, 72 h (Table 9) | cancer cell lines; Homo sapiens, MIA PaCa-2, 72 h, MIAPACA2, 72 h (Table 9) | cancer cell lines; Homo sapiens, MV4-11, 72 h, MV4-11, 72 h (Table 9) | cancer cell lines; Homo sapiens, NCI-H23, 72 h, NCI-H23, 72 h (Table 9) | cancer cell lines; Homo sapiens, NCI-H82, 72 h, NCIH82, 72 h (Table 9) | cancer cell lines; Homo sapiens, NCI-H460, 72 h, NCIH460, 72 h (Table 9) | cancer cell lines; Homo sapiens, OVCAR-3, 72 h, OVCAR3, 72 h (Table 9) | cancer cell lines; Homo sapiens, OVCAR-4, 72 h, OVCAR4, 72 h (Table 9) | cancer cell lines; Homo sapiens, PANC-1, 72 h, PANC1, 72 h (Table 9) | cancer cell lines; Homo sapiens, PLC-PRF-5, 72 h, PLCPRF5, 72 h (Table 9) | cancer cell lines; Homo sapiens, Panc1005, 72 h, PANC1005, 72 h (Table 9) | cancer cell lines; Homo sapiens, SAOS-2, 72 h, SAOS2, 72 h (Table 9) | cancer cell lines; Homo sapiens, SF-268, 72 h, SF268, 72 h (Table 9) | cancer cell lines; Homo sapiens, SF-295, 72 h, SF295, 72 h (Table 9) | cancer cell lines; Homo sapiens, SK-HEP1, 72 h, SKHEP1, 72 h (Table 9) | cancer cell lines; Homo sapiens, SK-LMS-1, 72 h, SKLMS1, 72 h (Table 9) | cancer cell lines; Homo sapiens, SK-MEL-5, 72 h, SKMEL5, 72 h (Table 9) | cancer cell lines; Homo sapiens, SK-MEL-28, 72 h, SKMEL28, 72 h (Table 9) | cancer cell lines; Homo sapiens, SK-N-AS, 72 h, SKNAS, 72 h (Table 9) | cancer cell lines; Homo sapiens, SK-OV-3, 72 h, SKOV3, 72 h (Table 9) | cancer cell lines; Homo sapiens, SNB-75, 72 h, SNB75, 72 h (Table 9) | cancer cell lines; Homo sapiens, SU-DHL10, 72 h, SU-DHL-10, 72 h (Table 9) | cancer cell lines; Homo sapiens, SW-620, 72 h, SW620, 72 h (Table 9) | cancer cell lines; Homo sapiens, TE-671, 72 h, TE671, 72 h (Table 9) | cancer cell lines; Homo sapiens, U2OS, 72 h, 72 h (Table 9) | cancer cell lines; Homo sapiens, UMUC3, 72 h, UMUC3, 72 h (Table 9) | cancer cell lines; PBMC, 72 h, 72 h (Table 9) | cancer cell lines; RD-ES, 72 h, RDES, 72 h (Table 9)
18.7 µM: cancer cell lines; Homo sapiens, Kasumi 1, 72 h, KASUMI-1, 72 h (Table 9)
2.46 µM: cancer cell lines; Homo sapiens, ASPC1, 72 h, ASPC1, 72 h (Table 9) | cancer cell lines; Homo sapiens, WSU-NHL, 72 h, 72 h (Table 9)
6.29 µM: cancer cell lines; Homo sapiens, HepG2, 72 h, HEPG2, 72 h (Table 9)
8.56 µM: cancer cell lines; Homo sapiens, JIMT-1, 72 h, JIMT1, 72 h (Table 9)
1.87 µM: cancer cell lines; Homo sapiens, ACHN, 72 h, 72 h (Table 9)
11.2 µM: cancer cell lines; Homo sapiens, UO-31, 72 h, UO31, 72 h (Table 9)
0.092 µM: human LINE-1
1.35 µM: cancer cell lines; Homo sapiens, Granta-519, 72 h, GRANTA-519, 72 h (Table 9)
0.41 µM: cancer cell lines; Homo sapiens, A204, 72 h, A204, 72 h (Table 9)
4.68 µM: cancer cell lines; Homo sapiens, NCI-H292, 72 h, NCIH292, 72 h (Table 9)
1.96 µM: cancer cell lines; Homo sapiens, MHH-ES-1, 72 h, MHHES1, 72 h (Table 9) | cancer cell lines; Homo sapiens, Ramos, 72 h, 72 h (Table 9)
3.36 µM: cancer cell lines; Homo sapiens, HL-60, 72 h, HL-60, 72 h (Table 9)
4.54 µM: cancer cell lines; NCI-H358M, 72 h, NCIH358M, 72 h (Table 9)
17.1 µM: cancer cell lines; Homo sapiens, A-431, 72 h, A431, 72 h (Table 9)
2.95 µM: cancer cell lines; Homo sapiens, CAKI-1, 72 h, CAKI1, 72 h (Table 9)
3.47 µM: cancer cell lines; Homo sapiens, SK-BR-3, 72 h, SKBR3, 72 h (Table 9)
2.04 µM: cancer cell lines; Homo sapiens, THP-1, 72 h, THP-1, 72 h (Table 9)
